Source: ChEMBL document CHEMBL5247581, “Design, synthesis and biological evaluation of new quinazolinone-benzopyran-indole hybrid compounds promoting osteogenesis through BMP2 upregulation” (Eur J Med Chem, 2022)
Active and inactive are the calls of the source. No cut-off for these calls is given here.

How the values were obtained:
[1] = test system: Calvarial osteoblast; assay: Induction of osteogenesis in mouse Osteoblast cells assessed as ALP activity at 10 nM measured for 24 to 48 hrs; assay type: functional, cell-based; conditions: time 24-48 hrs
[2] = test system: Calvarial osteoblast; assay: Induction of osteogenesis in mouse Osteoblast cells assessed as ALP activity at 1 to 1000 pM measured for 24 to 48 hrs; assay type: functional, cell-based; conditions: dose 1-1000 pM, time 24-48 hrs
[3] = test system: Calvarial osteoblast; assay: Induction of osteogenesis in mouse Osteoblast cells assessed as ALP activity at 0.001 to 100 uM measured for 24 to 48 hrs; assay type: functional; conditions: dose 0.001-100 µM, time 24-48 hrs
[4] = test system: Calvarial osteoblast; assay: Induction of osteogenesis in mouse Osteoblast cells assessed as fold increase in RUNX2 gene expression at 100 to 10000 pM by qRT-PCR analysis; assay type: functional; conditions: dose 100-10000 pM
[5] = test system: Calvarial osteoblast; assay: Induction of osteogenesis in mouse Osteoblast cells assessed as ALP activity at 0.001 to 100 uM measured for 48 hrs; assay type: functional, cell-based; conditions: dose 0.001-100 µM
[6] = test system: Calvarial osteoblast; assay: Induction of osteoblast differentiation in mouse calvarial osteoblasts cells assessed as ALP activity at 1 to 10000 pM measured for 7 days; assay type: functional, cell-based; conditions: dose 1-10000 pM, time 7.0 day
[7] = test system: Calvarial osteoblast; assay: Induction of osteogenesis in mouse Osteoblast cells assessed as ALP activity at 100 pM measured for 48 hrs; assay type: functional, cell-based
[8] = test system: Calvarial osteoblast; assay: Cytotoxicity against mouse Osteoblast cells assessed as reduction in cell viability at 100 uM measured for 24 to 48 hrs by MTT assay; assay type: toxicity, cell-based; conditions: time 24-48 hrs
[9] = test system: Calvarial osteoblast; assay: Cytotoxicity against mouse Osteoblast cells assessed as reduction in cell viability at 0.000001 to 1 uM measured for 24 to 48 hrs by MTT assay; assay type: toxicity, cell-based; conditions: dose lower 1e-06 µM, time lower 24 hrs, dose upper 1 µM, time upper 48 hrs
[10] = test system: Calvarial osteoblast; assay: Induction of osteogenesis in mouse Osteoblast cells assessed as ALP activity at 0.001 to 100 uM measured for 24 hrs; assay type: functional, cell-based; conditions: dose 0.001-100 µM
[11] = test system: Calvarial osteoblast; assay: Induction of osteoblast differentiation in mouse Osteoblast cells assessed as fold increase in RUNX2 expression at 100 pM by qRT-PCR analysis; assay type: functional
[12] = test system: Mus musculus; assay: Induction of osteogenesis in BALB/c mouse assessed as increase in BGLAP gene expression at 5 mg/kg, ip by qRT-PCR analysis; assay type: functional, organism-based
[13] = test system: Calvarial osteoblast; assay: Induction of osteogenesis in mouse Osteoblast cells assessed as fold increase in RUNX2 gene expression at 1 pM by qRT-PCR analysis; assay type: functional
[14] = test system: Mus musculus; assay: Induction of osteogenesis in BALB/c mouse assessed as increase in Col1a1 gene expression at 5 mg/kg, ip by qRT-PCR analysis; assay type: functional, organism-based
[15] = test system: Calvarial osteoblast; assay: Induction of osteogenesis in mouse Osteoblast cells assessed as fold increase in BGLAP expression at 10 nM by qRT-PCR analysis; assay type: functional
[16] = Induction of osteoblast mineralization in mouse Bone marrow cells assessed as increase in mineralized nodule formation at 10 nM replaced with media every 48 hrs for 21 days by Alizarin Red staining-based microscopic analysis; assay type: functional, Bone marrow cell; conditions: time 21 day
[17] = test system: Mus musculus; assay: Induction of bone formation in BALB/c mouse model assessed as morphological architecture at 1 mg/kg by histopathological analysis; assay type: functional, organism-based
[18] = Upregulation of BMP2 expression in mouse Osteoblast cells assessed as fold increase in phosphorylated p38 level measured at 24 hrs by ELISA analysis; assay type: functional, Calvarial osteoblast
[19] = test system: Mus musculus; assay: Induction of bone formation in BALB/c mouse model assessed as mineral apposition rate at 1 to 5 mg/kg by double labelling based analysis; assay type: functional, organism-based; conditions: dose 1-5 mg/kg
[20] = test system: Calvarial osteoblast; assay: Induction of osteogenesis in mouse Osteoblast cells assessed as ALP activity at 0.001 to 1 uM measured for 48 hrs; assay type: functional, cell-based; conditions: dose 0.001-1 µM
[21] = Induction of osteoblast mineralization in mouse Bone marrow cells assessed as increase in mineralized nodule formation at 100 pM replaced with media every 48 hrs for 21 days by Alizarin Red staining-based microscopic analysis; assay type: functional, Bone marrow cell; conditions: time 21 day
[22] = test system: Mus musculus; assay: Induction of bone formation in BALB/c mouse model assessed as mineralizing surface per bone surface at 1 to 5 mg/kg by double labelling based analysis; assay type: functional, organism-based; conditions: dose 1-5 mg/kg
[23] = test system: Calvarial osteoblast; assay: Induction of osteogenesis in mouse Osteoblast cells assessed as fold increase in ALP expression at 100 pM by qRT-PCR analysis; assay type: functional
[24] = test system: Mus musculus; assay: Induction of osteogenesis in BALB/c mouse assessed as fold increase in Col1a1 gene expression at 5 mg/kg, ip by qRT-PCR analysis; assay type: functional
[25] = test system: Mus musculus; assay: Induction of osteogenesis in BALB/c mouse assessed as fold increase in BGLAP gene expression at 5 mg/kg, ip by qRT-PCR analysis; assay type: functional
[26] = test system: Mus musculus; assay: Induction of bone formation in BALB/c mouse model assessed as calvarial bone formation at 1 to 5 mg/kg by double labelling based analysis; assay type: functional, organism-based; conditions: dose 1-5 mg/kg
[27] = test system: Mus musculus; assay: Induction of osteogenesis in BALB/c mouse assessed as fold increase in RUNX2 gene expression at 5 mg/kg, ip by qRT-PCR analysis; assay type: functional
[28] = test system: Mus musculus; assay: Induction of osteogenesis in BALB/c mouse assessed as increase in BMP2 gene expression at 5 mg/kg, ip by qRT-PCR analysis; assay type: functional, organism-based
[29] = test system: Mus musculus; assay: Induction of osteogenesis in BALB/c mouse assessed as fold increase in BMP2 gene expression at 5 mg/kg, ip by qRT-PCR analysis; assay type: functional
[30] = test system: Mus musculus; assay: Induction of bone formation in BALB/c mouse model assessed as increase in intercortical distance at 1 mg/kg by histopathological analysis; assay type: functional, organism-based
[31] = test system: Calvarial osteoblast; assay: Induction of osteoblast differentiation in mouse Osteoblast cells assessed as fold increase in BMP2 expression at 100 pM by qRT-PCR analysis; assay type: functional
[32] = test system: Calvarial osteoblast; assay: Induction of osteogenesis in mouse Osteoblast cells assessed as ALP activity at 100 pM measured for 24 to 48 hrs; assay type: functional, cell-based; conditions: time 24-48 hrs
[33] = test system: Calvarial osteoblast; assay: Induction of osteogenesis in mouse Osteoblast cells assessed as fold increase in BMP2 gene expression at 100 pM by qRT-PCR analysis; assay type: functional
[34] = test system: Calvarial osteoblast; assay: Induction of osteogenesis in mouse Osteoblast cells assessed as fold increase in mRNA expression at 1 to 10000 pM by qRT-PCR analysis; assay type: functional; conditions: dose 1-10000 pM
[35] = test system: Mus musculus; assay: Induction of bone formation in BALB/c mouse model assessed as bone formation rate/bone surface at 1 to 5 mg/kg by double labelling based analysis; assay type: functional, organism-based; conditions: dose 1-5 mg/kg
[36] = test system: Mus musculus; assay: Induction of osteogenesis in BALB/c mouse assessed as increase in RUNX2 gene expression at 5 mg/kg, ip by qRT-PCR analysis; assay type: functional, organism-based
[37] = test system: Calvarial osteoblast; assay: Induction of osteogenesis in mouse Osteoblast cells assessed as fold increase in BGLAP expression at 1 to 100 pM by qRT-PCR analysis; assay type: functional; conditions: dose 1-100 pM
[38] = test system: Calvarial osteoblast; assay: Induction of osteogenesis in mouse Osteoblast cells assessed as ALP activity at 10 nM measured for 48 hrs; assay type: functional, cell-based
[39] = test system: Calvarial osteoblast; assay: Induction of osteoblast differentiation in mouse calvarial osteoblasts cells assessed as ALP activity at 100 to 10000 pM measured for 7 days; assay type: functional, cell-based; conditions: dose 100-10000 pM, time 7.0 day

SMILES: Cc1[nH]c2ccccc2c1C1C(C#N)=C(N)Oc2ccccc21 (stereo not given)
- Activity [1]: inactive
- Activity [2]: inactive
- Activity [3]: inactive

SMILES: CCCc1cc(-c2nc3ccccc3c(=O)n2C)cc2c1OC(N)=C(C#N)C2c1c(C)[nH]c2ccc(Cl)cc12 (stereo not given)
- Activity [3]: 12%

SMILES: CCCc1cc(-c2nc3ccccc3c(=O)n2C)cc2c1OC(N)=C(C#N)C2c1c(C)[nH]c2ccc(OC)cc12 (stereo not given)
- Activity [3]: 11%
- fold change (FC) [4]: 3

SMILES: Cc1[nH]c2ccc(Cl)cc2c1C1C(C#N)=C(N)Oc2c1cc(-c1nc3ccccc3c(=O)n1C)cc2C(C)(C)C (stereo not given)
- Activity [3]: 7%

SMILES: CCc1cc(-c2nc3ccccc3c(=O)n2CC)cc2c1OC(N)=C(C#N)C2c1c(C)[nH]c2ccccc12 (stereo not given)
- Activity [5]: Active
- Activity [6]: inactive
- Activity [7]: Active
- Activity [8]: Toxic
- Activity [9]: Non-Toxic
- Activity [10]: inactive
- Activity [3]: 38%

SMILES: CCn1c(-c2cc3c(c(C(C)(C)C)c2)OC(N)=C(C#N)C3c2c(C)[nH]c3ccccc23)nc2ccccc2c1=O (stereo not given)
- Activity [3]: 9%

SMILES: Cc1[nH]c2ccccc2c1C1C(C#N)=C(N)Oc2c1cc(-c1nc3ccccc3c(=O)n1C)cc2C(C)(C)C (stereo not given)
- Activity [3]: inactive

SMILES: CCn1c(-c2cc(C)c3c(c2)C(c2c(C)[nH]c4ccccc24)C(C#N)=C(N)O3)nc2ccccc2c1=O (stereo not given)
- fold change (FC) [11]: 2.7
- Activity [12]: Active
- Activity [5]: Active
- fold change (FC) [13]: 2
- Activity [6]: Active
- Activity [14]: Active
- fold change (FC) [15]: 4
- Activity [16]: 50%
- Activity [17]: Active
- fold change (FC) [18]: 1.5
- Activity [19]: Active
- Activity [20]: Active
- Activity [8]: Toxic
- Activity [21]: 30%
- Activity [22]: Active
- Activity [9]: Non-Toxic
- fold change (FC) [23]: 3
- fold change (FC) [24]: 10
- fold change (FC) [25]: 7
- Activity [10]: inactive
- Activity [26]: Active
- fold change (FC) [27]: 11
- Activity [28]: Active
- fold change (FC) [29]: 6
- Activity [30]: Active
- fold change (FC) [31]: 2.3
- Activity [3]: 50%
- Activity [32]: Active
- fold change (FC) [33]: 3
- fold change (FC) [34]: 2
- Activity [35]: Active
- Activity [36]: Active
- fold change (FC) [37]: 2

SMILES: CCn1c(-c2cc(C)c3c(c2)C(c2c(C)n(CC)c4ccccc24)C(C#N)=C(N)O3)nc2ccccc2c1=O (stereo not given)
- Activity [3]: inactive

SMILES: COc1ccc2[nH]c(C)c(C3C(C#N)=C(N)Oc4c3cc(-c3nc5ccccc5c(=O)n3C)cc4C(C)(C)C)c2c1 (stereo not given)
- Activity [5]: Active
- Activity [16]: 20%
- Activity [8]: Toxic
- Activity [21]: 10%
- Activity [9]: Non-Toxic
- Activity [10]: inactive
- Activity [38]: Active
- Activity [39]: Active
- Activity [3]: 19%

SMILES: COc1ccc2[nH]c(C)c(C3C(C#N)=C(N)Oc4c(C(C)C)cc(-c5nc6ccccc6c(=O)n5C)cc43)c2c1 (stereo not given)
- Activity [3]: inactive

SMILES: CCn1c(-c2cc(C)c3c(c2)C(c2c(C)n(C)c4ccccc24)C(C#N)=C(N)O3)nc2ccccc2c1=O (stereo not given)
- Activity [3]: 14%

SMILES: CCc1cc(-c2nc3ccccc3c(=O)n2C)cc2c1OC(N)=C(C#N)C2c1c(C)[nH]c2ccc(OC)cc12 (stereo not given)
- Activity [3]: 2%

SMILES: CCn1c(-c2cc3c(c(C(C)(C)C)c2)OC(N)=C(C#N)C3c2c(C)[nH]c3ccc(OC)cc23)nc2ccccc2c1=O (stereo not given)
- Activity [3]: 1%

SMILES: COc1ccc2[nH]c(C)c(C3C(C#N)=C(N)Oc4c(C)cc(-c5nc6ccccc6c(=O)n5C)cc43)c2c1 (stereo not given)
- Activity [3]: 13%

SMILES: Cc1[nH]c2ccc(Cl)cc2c1C1C(C#N)=C(N)Oc2c(C(C)C)cc(-c3nc4ccccc4c(=O)n3C)cc21 (stereo not given)
- Activity [3]: 5%
